Source: US10077290B2, “Stabilized antiviral fusion helices” (priority 2011, dated 2018)
“Also recorded” adds a separate entry of the source.

How the values were obtained:
RSV 2-20 = test: Infection of A549 cells at 0.1 MOI, Hep-2 plaque assay titers: RSV 2-20; type: cell-based, Respiratory Syncytial Virus (RSV); details: 5 μM peptide
Description: (§1) In this study A549 cells were plated in a 24 well plate at 30,000 cells/well. The following day, the cells were treated with 5 μM of the indicated stapled SAHF peptide or volume-equivalent DMSO vehicle, followed by infection with RSV-A2, RSV 2-20, or RSV-rA2Line19F within 30 minutes at 0.1 MOI. The supernatant was collected 24 h post infection, and applied to Hep-2 cells that were plated the day prior on a 24 well plate at 60,000 cells/well. Plaque assays were performed on Hep-2 cells using the collected supernatant and titers determined at 5 days post infection of Hep-2 cells. The results of this analysis are shown in FIGS. 15A, 15B and 15C in which titers are shown as pfu/ml and the values represent the mean+/−SEM for two independent experiments (***p<0.001; ****p<0.0001).

RSV-A2 [1] = test: Infection of A549 cells at 0.1 MOI, Hep-2 plaque assay titers: RSV-A2; type: cell-based, Respiratory Syncytial Virus (RSV); details: 5 μM peptide
Description: as §1

RSV-A2 [2] = test: RSV-A2 lung infection of BALB/c mice after prophylactic intranasal peptide; type: in vivo; details: 125 μM intranasally, dosing and inoculation repeated at 16 hours, 4 days after second infection
Description: One hour post treatment, three groups of mice were inoculated with a single dose of RSV-A2 at 1×10^6 pfu/mouse. Peptide dosing and viral inoculation was repeated 16 hours post-infection. The fourth group was treated with volume-equivalent vehicle and mock-infected. Two mice from each group were sacrificed 4 days after the second infection and left lung lobes harvested after 1% paraformaldehyde perfusion, followed by cryopreservation in OCT. Sections (5 μm) were treated with 1:1000 dilution of rabbit anti-RSV polyclonal antibody (Millipore) overnight followed by anti-rabbit antibody conjugated to Alexa Fluor 555 (1:400) (red) (Molecular Probes) for 1 h. Sections were washed and mounted with medium containing DAPI (blue) and viewed with an Olympus fluorescent microscope (FIG. 17A; original magnification 20×). Image J analysis was performed on the acquired images and the percentage RSV-positive cells (red) of total DAPI-positive cells (blue) determined from 8 images (4 sections) per mice (FIG. 17B; .error bars represent mean+/−SEM; *, p<0.0001). Four days after the second infection, bronchoalveolar lavage (BAL) was performed on one mouse from each group and BAL supernatant used to determine the viral titers by plaque assay on Hep-2 cells (FIG. 17C; error bars represent mean+/−SEM of plaques counted per in vivo specimen; *, p<0.05). Also at four days after the second infection, cranial and caudal lobes of the right lung from two mice per group were snap frozen on dry ice. A lung homogenate was generated from the cranial lobe and supernatant subjected to viral titer determination (log 10 pfu/ml) (FIG. 17D; error bars represent mean+/−SEM; *, p<0.05). Total RNA was isolated from the caudal lobe of the right lung and quatitative RT-PCR was performed for the RSV-N gene. The results of this analysis are presented in FIG. 17E in which the bar graphs represent the RSV-N gene expression normalized to the mock-infected tissue.

RgRSV = test: Intranasal RgRSV infection of BALB/c mice after intranasal peptide; type: in vivo
Description: One hour post treatment, three groups of mice were inoculated with a single dose of RgRSV at 1×10^6 pfu/mouse, with the fourth group receiving a mock inoculation. Mice were sacrificed at 24 hours post infection and the noses harvested, sectioned, stained with DAPI and imaged with an Olympus fluorescent microscope (FIG. 16A; original magnification 20×). Image J analysis was performed on the acquired images (FIG. 16B) and average GFP positive (green) and DAPI positive (blue) cells were calculated from eight images (4 sections) per mouse (bars represent percent GFP positive of total DAPI-positive cells present in the images and error bars represent mean+/−SEM. *, p<0.001). FIG. 16C depicts the results of hematoxylin and eosin staining of the nose sections (original magnification 20×, insets 100×) In FIG. 16C black arrows highlight thickened mucosa.

RSV-A2 [3] = test: RSV-A2 infection of A549 cells at 1 MOI, Hep-2 plaque assay titers; type: cell-based, Respiratory Syncytial Virus (RSV); details: 5 μM peptide
Description: In this study A549 cells were plated in a 24 well plate at 30,000 cells/well. The following day, the cells were treated with 5 μM of the indicated stapled SAHF peptide or volume-equivalent DMSO vehicle, followed by RSV-A2 infection at 1 MOI. The cells were infected for 2 h, and the infection medium replaced with 400 μl of DMEM containing 5% FBS and 5 μM of the indicated stapled SAHF peptide. Cells were harvested along with the supernantant 24 h post infection, vortexed for 10 sec, and the supernatant collected, leaving the cell pellet behind. Hep-2 cells were plated on a 24 well plate at 60,000 cells/well the day before use. Plaque assay was performed on Hep-2 cells using the collected supernatant and titers determined at 5 days post infection of Hep-2 cells. The results of this analysis are shown in FIG. 14 in which titers are shown as log 10 pfu/ml and the values represent the mean+/−SEM for two independent experiments (***p<0.001; ****p<0.0001).

RSV-rA2Line19F = test: Infection of A549 cells at 0.1 MOI, Hep-2 plaque assay titers: RSV-rA2Line19F; type: cell-based, Respiratory Syncytial Virus (RSV); details: 5 μM peptide
Description: as §1

FD8SISQVNXKINQSLAFI8KSDELLXNVNAGKST (FDXSISQVNXKINQSLAFIXKSDELLXNVNAGKST; two hydrocarbon staples; MOD_RES (3)..(3) Any amino acid; (3)..(10) Crosslink between residues; MOD_RES (10)..(10) Any amino acid; MOD_RES (20)..(20) Any amino acid; (20)..(27) Crosslink between residues; MOD_RES (27)..(27) Any amino acid) [SAHF-H, J]
viral infection by RSV 2-20 (titers) (RSV 2-20): prevents viral infection | viral infection by RSV-A2 (titers) (RSV-A2 [1]): prevents viral infection | RSV-A2 lung infection, by each measure (RSV-positive cells, BAL and lung homogenate titers, RSV-N gene) (RSV-A2 [2]): inhibited RSV infection; also recorded: inhibits RSV-A2 lung infection | intranasal RgRSV infection (percent GFP positive cells in nose sections) (RgRSV; 125 μM intranasally one hour before RgRSV, 24 hours post infection): blocks intranasal RgRSV infection | inflammation in nose sections (hematoxylin and eosin staining) (RgRSV; RgRSV-infected, 125 μM intranasally): comparatively decreased inflammatory cells | RSV-A2 infection (viral titers) (RSV-A2 [3]): inhibit RSV-A2 infection of A549 cells | viral infection by RSV-rA2 Line 19F (titers) (RSV-rA2Line19F): prevents viral infection
